Species: Rattus norvegicus
Experiment: DrugMatrix - Regimen: Daily Repeat
Assay type: toxicity, organism-based, Sprague-Dawley
Set-up: regimen Daily Repeat, gender Male, age 6-8 weeks
Conditions: in vivo, po, route oral GAVAGE, […]; for ABSOLUTE BASOPHIL / ABSOLUTE EOSINOPHIL / ABSOLUTE LYMPHOCYTE / ABSOLUTE MONOCYTE / ABSOLUTE SEGMENTED NEUTROPHIL / BASOPHIL / EOSINOPHIL / ERYTHROCYTE COUNT / HEMATOCRIT / HEMOGLOBIN / LEUKOCYTE COUNT / LYMPHOCYTE / MEAN CORPUSCULAR HEMOGLOBIN / MEAN CORPUSCULAR HEMOGLOBIN CONCENTRATION / MEAN CORPUSCULAR VOLUME / MONOCYTE / NEUTROPHIL / NUCLEATED RED BLOOD CELLS / PLATELET COUNT: tissue Blood; for ALANINE AMINOTRANSFERASE / ALBUMIN / ALKALINE PHOSPHATASE / ASPARTATE AMINOTRANSFERASE / BLOOD UREA NITROGEN / CARBON DIOXIDE / CHLORIDE / CHOLESTEROL / CREATINE PHOSPHOKINASE / CREATININE / GLUCOSE / LACTATE DEHYDROGENASE / LIPASE / PHOSPHORUS / POTASSIUM / SODIUM / TOTAL BILIRUBIN / TOTAL PROTEIN / URIC ACID: tissue Plasma
[1] = 0 mg/kg, 72 h, dose level Control, time 3 day
[2] = 0 mg/kg, 120 h, dose level Control, time 5 day
[3] = 80 mg/kg, 72 h, dose level Low, time 3 day

## CC(C)(Oc1ccc(C2CCCc3ccccc32)cc1)C(=O)O (centres undefined) [NAFENOPIN]
[1]
  ABSOLUTE BASOPHIL: 0 CELLS/uL
  ABSOLUTE EOSINOPHIL: 47.67 CELLS/uL
  ABSOLUTE LYMPHOCYTE: 11079 CELLS/uL
  ABSOLUTE MONOCYTE: 251.67 CELLS/uL
  ABSOLUTE SEGMENTED NEUTROPHIL: 1505 CELLS/uL
  BASOPHIL: 0%
  EOSINOPHIL: 0.33%
  ERYTHROCYTE COUNT: 5.31 x10E6/uL
  HEMATOCRIT: 32.87%
  HEMOGLOBIN: 12.27 G/DL
  LEUKOCYTE COUNT: 12.88 x10E3/uL
  LYMPHOCYTE: 86.17%
  MEAN CORPUSCULAR HEMOGLOBIN: 23.2 pg
  MEAN CORPUSCULAR HEMOGLOBIN CONCENTRATION: 37.37 G/DL
  MEAN CORPUSCULAR VOLUME: 62.03 fL
  MONOCYTE: 2%
  NEUTROPHIL: 11.5%
  NUCLEATED RED BLOOD CELLS: 0 /100WBC
  PLATELET COUNT: 956.5 x10E3/uL
  ALANINE AMINOTRANSFERASE: 69.67 u/L
  ALBUMIN: 4.15 G/DL
  ALKALINE PHOSPHATASE: 415.33 u/L
  ASPARTATE AMINOTRANSFERASE: 93.17 u/L
  BLOOD UREA NITROGEN: 17.33 mg/dL
  CARBON DIOXIDE: 27.33 mmol/L
  CHLORIDE: 100.17 MEQ/L
  CHOLESTEROL: 76.5 mg/dL
  CREATINE PHOSPHOKINASE: 587 u/L
  CREATININE: 0.25 mg/dL
  GLUCOSE: 155.5 mg/dL
  LACTATE DEHYDROGENASE: 343.5 u/L
  LIPASE: 11.17 u/L
  PHOSPHORUS: 11.77 mg/dL
  POTASSIUM: 6.51 MEQ/L
  SODIUM: 140.93 MEQ/L
  TOTAL BILIRUBIN: 0.2 mg/dL
  TOTAL PROTEIN: 5.87 G/DL
  URIC ACID: 1.43 mg/dL
[2]
  ABSOLUTE BASOPHIL: 0 CELLS/uL
  ABSOLUTE EOSINOPHIL: 22.67 CELLS/uL
  ABSOLUTE LYMPHOCYTE: 12729.33 CELLS/uL
  ABSOLUTE MONOCYTE: 424.67 CELLS/uL
  ABSOLUTE SEGMENTED NEUTROPHIL: 2006.67 CELLS/uL
  BASOPHIL: 0%
  EOSINOPHIL: 0.17%
  ERYTHROCYTE COUNT: 5.48 x10E6/uL
  HEMATOCRIT: 33.32%
  HEMOGLOBIN: 12.73 G/DL
  LEUKOCYTE COUNT: 15.18 x10E3/uL
  LYMPHOCYTE: 83.83%
  MEAN CORPUSCULAR HEMOGLOBIN: 23.25 pg
  MEAN CORPUSCULAR HEMOGLOBIN CONCENTRATION: 38.22 G/DL
  MEAN CORPUSCULAR VOLUME: 60.85 fL
  MONOCYTE: 2.83%
  NEUTROPHIL: 13.17%
  NUCLEATED RED BLOOD CELLS: 0 /100WBC
  PLATELET COUNT: 909.83 x10E3/uL
  ALANINE AMINOTRANSFERASE: 57.67 u/L
  ALBUMIN: 4.03 G/DL
  ALKALINE PHOSPHATASE: 472.33 u/L
  ASPARTATE AMINOTRANSFERASE: 80.83 u/L
  BLOOD UREA NITROGEN: 14.67 mg/dL
  CARBON DIOXIDE: 31.83 mmol/L
  CHLORIDE: 96 MEQ/L
  CHOLESTEROL: 68 mg/dL
  CREATINE PHOSPHOKINASE: 281.67 u/L
  CREATININE: 0.19 mg/dL
  GLUCOSE: 147.33 mg/dL
  LACTATE DEHYDROGENASE: 210.83 u/L
  LIPASE: 11 u/L
  PHOSPHORUS: 11.63 mg/dL
  POTASSIUM: 6.06 MEQ/L
  SODIUM: 139.37 MEQ/L
  TOTAL BILIRUBIN: 0.17 mg/dL
  TOTAL PROTEIN: 5.82 G/DL
  URIC ACID: 1.12 mg/dL
[3]
  ABSOLUTE BASOPHIL: 0 CELLS/uL
  ABSOLUTE EOSINOPHIL: 91 CELLS/uL
  ABSOLUTE LYMPHOCYTE: 10987.33 CELLS/uL
  ABSOLUTE MONOCYTE: 229 CELLS/uL
  ABSOLUTE SEGMENTED NEUTROPHIL: 2392.67 CELLS/uL
  BASOPHIL: 0%
  EOSINOPHIL: 0.67%
  ERYTHROCYTE COUNT: 5.31 x10E6/uL
  HEMATOCRIT: 33.1%
  HEMOGLOBIN: 12.4 G/DL
  LEUKOCYTE COUNT: 13.7 x10E3/uL
  LYMPHOCYTE: 80.33%
  MEAN CORPUSCULAR HEMOGLOBIN: 23.37 pg
  MEAN CORPUSCULAR HEMOGLOBIN CONCENTRATION: 37.47 G/DL
  MEAN CORPUSCULAR VOLUME: 62.37 fL
  MONOCYTE: 1.67%
  NEUTROPHIL: 17.33%
  NUCLEATED RED BLOOD CELLS: 0 /100WBC
  PLATELET COUNT: 1097 x10E3/uL
  ALANINE AMINOTRANSFERASE: 88 u/L
  ALBUMIN: 4.7 G/DL
  ALKALINE PHOSPHATASE: 593 u/L
  ASPARTATE AMINOTRANSFERASE: 109.67 u/L
  BLOOD UREA NITROGEN: 15.33 mg/dL
  CARBON DIOXIDE: 25.67 mmol/L
  CHLORIDE: 102.33 MEQ/L
  CHOLESTEROL: 44.33 mg/dL
  CREATINE PHOSPHOKINASE: 372 u/L
  CREATININE: 0.23 mg/dL
  GLUCOSE: 141 mg/dL
  LACTATE DEHYDROGENASE: 370.67 u/L
  LIPASE: 10.67 u/L
  PHOSPHORUS: 12.4 mg/dL
  POTASSIUM: 6.4 MEQ/L
  SODIUM: 144.37 MEQ/L
  TOTAL BILIRUBIN: 0.1 mg/dL
  TOTAL PROTEIN: 5.57 G/DL
  URIC ACID: 1.3 mg/dL

From ChEMBL document CHEMBL3885881, “DrugMatrix”
